# From US20110034472A1, “Novel Compounds for Treatment of Cancer and Disorders Associated With Angiogenesis Function” (UNIVERSITY OF SOUTHERN CALIFORNIA, priority 2004, published 2011)
# System: HEY ovarian cancer cells
# Experiment: MTT cytotoxicity assay, HEY
# Assay type: cell-based, human
# Conditions: Homo sapiens; HEY ovarian cancer cells; read-out: 50% Cytotoxic concentration (IC50)
# Description: (§1) The sensitivity of a panel of seven human cancer cell lines to SC144 was assessed by MTT-assay. […] The sensitivity towards SC144 was time- and dose-dependent.
# (§2) Cytotoxicity was assessed by a 3-(4,5-dimethylthiazol-2-yl)-2,5-diphenyltetrazolium bromide assay as previously described (Carmichael et al. (1987) Cancer Res. 47:936-42). Briefly, cells were seeded in 96-well microtiter plates (PC3 and DU145 at 5,000 cells/well and LNCaP at 10,000 cells/well; breast and ovarian cells at 4,000 cells/well) and allowed to attach. Cells were subsequently treated with a continuous exposure to the corresponding drug for 72 hours. A 3-(4,5-dimethylthiazol-2-yl)-2,5-diphenyltetrazolium bromide solution (at a final concentration of 0.5 mg/mL) was added to each well and cells were incubated for 4 hours at 37° C. After removal of the medium, DMSO was added and the absorbance was read at 570 nm. All assays were done in triplicate. The IC50 was then determined for each drug from a plot of log(drug concentration) versus percentage of cell kill.
row,SMILES,IC50 [µM]
1,C=C(C)CNC(=S)NNC(=O)CCn1c2ccccc2c2ccccc21 [SC217],4
2,O=C(NNC1=NS(=O)(=O)c2ccccc21)c1ccncc1 [SC265],5
3,COc1ccc(C(=O)NNC(=O)c2cc3ccccc3cc2O)cc1 [SC276],13
4,Cc1cc(C)cc(OCC(=O)NNC(=O)c2cc3ccccc3oc2=O)c1 [SC215],12
5,CCCCCCCCC(=O)NNC(=O)c1c(O)c2ccccc2n(C)c1=O [SC233],5
6,O=C(NNC1=CS(=O)(=O)c2ccccc21)c1ccccc1 [SC264],5
7,O=C(CSc1nc(C2CC2)nc2sc3c(c12)CCCC3)NNC(=O)c1ccco1 [SC224],4
8,O=C(Cc1ccccc1)NNC(=O)c1c(O)c2ccccc2[nH]c1=O [SC277],14
9,COc1ccc2nc(C)cc(SCC(=O)NNC(=O)COc3cccc4ccccc34)c2c1 [SC242],5
10,O=C(NNC(=O)c1cccc2ccccc12)c1cccs1 [SC261],11

# System: MDA-MB-435 breast cancer cells
# Experiment: MTT cytotoxicity assay, MDA-MB-435
# Assay type: cell-based, human
# Conditions: Homo sapiens, MTT, 72 h, read-out: IC50
# Description: as §1, §2
# (§3) Cytotoxicity was assessed by a 3-(4,5-dimethylthiazol-2-yl)-2,5-diphenyltetrazolium bromide (MTT) assay as previously described.^9 Briefly, cells were seeded in 96-well microtiter plates and allowed to attach. Cells were subsequently treated with continuous exposure to the corresponding drug for 72 h. An MTT solution (at a final concentration of 0.5 mg/mL) was added to each well, and cells were incubated for 4 h at 37° C. After removal of the medium, DMSO was added and the absorbance was read at 570 nm. All assays were done in triplicate. The IC50 was then determined for each drug from a plot of log (drug concentration) versus percentage of cells killed.
row,SMILES,IC50 [µM]
1,"N#Cc1ccc(C(N)CC(=O)NNc2nc3ccccc3n3cccc23)cc1 (stereo not shown) [SC163, 3-Amino-3-(4-cyano-phenyl)-propionic acid N′-pyrrolo[1,2-a]quinoxalin-4-yl-hydrazide]",> 20
2,"COc1ccc(C(N)CC(=O)NNc2nc3ccccc3n3cccc23)cc1 (stereo not shown) [SC164, 3-Amino-3-(4-methoxy-phenyl)-propionic acid N′-pyrrolo[1,2-a]quinoxalin-4-yl-hydrazide]",> 20

# System: MDA-MB-435 cells
# Experiment: MTT assay, continuous drug exposure for 48 hours (Table 3)
# Assay type: cell-based, human
# Conditions: not given
SMILES,CC50 [µM],CC80 [µM]
N.N.[Cl][Pt][Cl] [Cisplatin],39 ± 1.41,71 ± 1.4

# Same assay, conditions: Homo sapiens, MDA-MB-435
row,SMILES,CC50 [µM]
1,COc1cc([C@@H]2c3cc4c(cc3[C@@H](O[C@@H]3O[C@@H]5CO[C@@H](C)O[C@H]5[C@H](O)[C@H]3O)[C@H]3COC(=O)[C@H]23)OCO4)cc(OC)c1O [Etoposide],52.5 ± 3.5
2,CC(=O)O[C@H]1C(=O)[C@@]2(C)[C@H]([C@H](OC(=O)c3ccccc3)[C@]3(O)C[C@H](OC(=O)[C@H](O)[C@@H](NC(=O)c4ccccc4)c4ccccc4)C(C)=C1C3(C)C)[C@]1(OC(C)=O)CO[C@@H]1C[C@@H]2O [Taxol],0.04 ± 0.003
3,O=C1c2c(O)ccc(O)c2C(=O)c2c(NCCNCCO)ccc(NCCNCCO)c21 [Mitoxantrone],4.5 ± 1.4

# Same assay, conditions: Homo sapiens, MDA-MB-435, read-out: CC80
row,SMILES,IC80 [µM]
1,COc1cc([C@@H]2c3cc4c(cc3[C@@H](O[C@@H]3O[C@@H]5CO[C@@H](C)O[C@H]5[C@H](O)[C@H]3O)[C@H]3COC(=O)[C@H]23)OCO4)cc(OC)c1O [Etoposide],300 ± 106
2,CC(=O)O[C@H]1C(=O)[C@@]2(C)[C@H]([C@H](OC(=O)c3ccccc3)[C@]3(O)C[C@H](OC(=O)[C@H](O)[C@@H](NC(=O)c4ccccc4)c4ccccc4)C(C)=C1C3(C)C)[C@]1(OC(C)=O)CO[C@@H]1C[C@@H]2O [Taxol],0.07 ± 0.01
3,O=C1c2c(O)ccc(O)c2C(=O)c2c(NCCNCCO)ccc(NCCNCCO)c21 [Mitoxantrone],7.3 ± 0.35

# System: CEM or HEY cells
# Experiment: Cytotoxicity of salicylhydrazides (Table 5)
# Assay type: cell-based
# Conditions: Homo sapiens
# Excerpt: Human prostate cancer cells (PC3, p53 null, AR−; DU145, p53 mutant, AR−; and LNCaP, p53 wild-type, AR+) and breast cancer cells (MCF-7, overexpressed wild-type p53, ER+; MDA-MB-468, p53 mutant, […]; and MDA-MB-435, p53 mutant, ER−) were obtained from American Type Cell Culture (Manassas, Va.). The human ovarian carcinoma cell line (HEY) naturally resistant to cisplatin (CDDP) was kindly provided by Dr. Dubeau (University of Southern California Norris Cancer Center; Buick et al. (1985) Cancer Res. 45:3668-76 and Hamaguchi et al. (1993) Cancer Res. 53:5225-32). The results with CEM cells were previously described (Neamati et al. (1998) J. Med. Chem. 41:3202-9). Cells were maintained as monolayer cultures in RPMI 1640 supplemented with 10% fetal bovine serum (Gemini-Bioproducts, Woodland, Calif.) and 2 mmol/L L-glutamine at 37° C. in a humidified atmosphere of 5% CO2. To remove the adherent cells from the flask for passaging and counting, cells were washed with PBS without calcium or magnesium, incubated with a small volume of 0.25% trypsin-EDTA solution (Sigma-Aldrich, St. Louis, Mo.) for 5 to 10 minutes, and washed with culture medium and centrifuged. All experiments were done using cells in exponential cell growth.
# as §2
row,SMILES,IC50 [µM]
1,COc1ccc(/C=C2/C(=O)N(C(=O)c3ccccc3O)N=C2C)cc1OC [SC25],0.15
2,C=C/C=C(\C=C)N1N=C(C)/C(=C(/NNC(=O)c2ccccc2O)c2ccccc2)C1=O [SC31],10 ± 2
3,O=C(NNC(=O)c1ccccc1O)c1ccccc1O [SC20],0.1 ± 0.01
4,C=C1C/C(=C\c2ccc(Cl)cc2)C(=O)N1CC(=O)NNC(=O)c1ccccc1O [SC37],15 ± 3
5,O=C(/C=C/NNC(=O)c1ccccc1O)c1ccccc1 [SC33],20
6,O=C(CN1C(=O)C/C(=C\c2ccc(Cl)cc2)C1O)NNC(=O)C1=CCCC=C1O (stereo not shown) [SC28],10 ± 2
7,C=C/C=C(\C=C)N1N=C(C)/C(=C/NNC(=O)c2ccccc2)C1=O [SC32],2 ± 1
8,COc1ccc2oc(=O)c(C(=O)NNC(=O)c3cccc(C)c3)cc2c1 [SC35],12 ± 2
9,O=C(CNC(=O)c1ccccc1O)c1ccc(N2C(=O)c3ccccc3C2=O)cc1 [SC30],6.5 ± 1
10,Cc1cccc(C(=O)NNC(O)c2ccc(N3C(=O)c4ccccc4C3=O)cc2)c1 (stereo not shown) [SC29],7 ± 2
11,O=C(COc1ccccc1Cl)NNC(=O)c1cc2ccccc2cc1O [SC34],20
12,CC1=NN(C(=O)c2ccccc2O)C(=O)/C1=C/c1ccc(O)cc1 [SC27],0.06
13,CC1=NN(C(=O)c2ccccc2O)C(=O)/C1=C/c1ccccc1O [SC26],0.06
14,COc1ccc(NC(=O)NNC(=O)c2c(O)ccc3ccccc23)cc1 [SC36],20

# System: HCT 116 p53^+/+ colon cancer cells
# Experiment: MTT cytotoxicity assay, HCT 116 p53+/+
# Assay type: cell-based, human
# Conditions: Homo sapiens, 72 h
# Excerpt: (§4) Human breast cancer cells MDA-MB-435 and colon cancer HT29, p53 mutant were purchased from the American Type Cell Culture (Manassas, Va.). The HCT116 P53^+/+ and HCT116 P53^−/− cells were kindly provided by Dr. Bert Vogelstein (Johns Hopkins Medical Institutions, Baltimore, Md.). Human prostate cancer cells, LNCaP, were kindly provided by Richard Cote (University of Southern California Keck School of Medicine). Cells were maintained as monolayer cultures in RPMI 1640 media supplemented with 10% fetal bovine serum (Gemini-Bioproducts, Woodland, Calif.) and 2 mmol/L L-glutamine at 37° C. in a humidified atmosphere of 5% CO2. To remove the adherent cells from the flask for passaging and counting, cells were washed with PBS without calcium or magnesium, incubated with a small volume of 0.25% trypsin-EDTA solution (Sigma-Aldrich, St. Louis, Mo.) for 5-10 min, and washed with culture medium and centrifuged. All experiments were performed using cells at exponential growth stage. Cells were routinely checked for mycoplasma contamination using a PCR-based assay (Stratagene, Cambridge, UK).
# as §3
row,SMILES,IC50 [µM]
1,"N#Cc1ccc(C(N)CC(=O)NNc2nc3ccccc3n3cccc23)cc1 (stereo not shown) [SC163, 3-Amino-3-(4-cyano-phenyl)-propionic acid N′-pyrrolo[1,2-a]quinoxalin-4-yl-hydrazide]",> 20
2,"COc1ccc(C(N)CC(=O)NNc2nc3ccccc3n3cccc23)cc1 (stereo not shown) [SC164, 3-Amino-3-(4-methoxy-phenyl)-propionic acid N′-pyrrolo[1,2-a]quinoxalin-4-yl-hydrazide]",> 20

# System: HCT 116 p53^−/− colon cancer cells
# Experiment: MTT cytotoxicity assay, HCT 116 p53-/-
# Assay type: cell-based, human
# Conditions: Homo sapiens, 72 h
# Excerpt: as §4, §3
row,SMILES,IC50 [µM]
1,"N#Cc1ccc(C(N)CC(=O)NNc2nc3ccccc3n3cccc23)cc1 (stereo not shown) [SC163, 3-Amino-3-(4-cyano-phenyl)-propionic acid N′-pyrrolo[1,2-a]quinoxalin-4-yl-hydrazide]",> 20
2,"COc1ccc(C(N)CC(=O)NNc2nc3ccccc3n3cccc23)cc1 (stereo not shown) [SC164, 3-Amino-3-(4-methoxy-phenyl)-propionic acid N′-pyrrolo[1,2-a]quinoxalin-4-yl-hydrazide]",> 20

# System: HT29 colon cancer cells
# Experiment: MTT cytotoxicity assay, HT 29
# Assay type: cell-based, human
# Conditions: Homo sapiens, 72 h
# Excerpt: as §4, §3
row,SMILES,IC50 [µM]
1,"N#Cc1ccc(C(N)CC(=O)NNc2nc3ccccc3n3cccc23)cc1 (stereo not shown) [SC163, 3-Amino-3-(4-cyano-phenyl)-propionic acid N′-pyrrolo[1,2-a]quinoxalin-4-yl-hydrazide]",> 20
2,"COc1ccc(C(N)CC(=O)NNc2nc3ccccc3n3cccc23)cc1 (stereo not shown) [SC164, 3-Amino-3-(4-methoxy-phenyl)-propionic acid N′-pyrrolo[1,2-a]quinoxalin-4-yl-hydrazide]",> 20
